Patent publication US10617670B2, “Synergistic auristatin combinations” (priority 2014, dated 2020)

Experiments:
[1] = in vitro; details: rat, plasma
[2] = tested on: human cancer cell lines with PI3K pathway aberrations; assay: Mouse xenograft models
[3] = rat
[4] = tested on: panel of 81 protein kinases and Class III PI3K family hVps34; assay: Kinase screening services (Dundee University and Invitrogen); format: biochemical; details: 81 protein kinases and hVps34
[5] = tested on: lung, breast cancer and ovarian cancer cell lines; assay: In vitro cytotoxic activity and combinations, cell line panel; format: cell-based, human; details: agent alone
Description: Cells were plated in a 96-well clear-bottomed plates (Corning) and treated with varying concentrations of compounds for 4 days. […] by using a CellTiter Glo luminescent cell viability assay kit (Promega) and measured using a Victor X3 plate reader (Perkin Elmer). The data were normalised to the control group (empty vector or DMSO). The IC50 values were defined as the concentration that causes 50% growth inhibition. IC50 values were calculated using a logistic nonlinear regression, model no. 203 with XL fit v4.2 (IDBS, Guldford, Surry, UK). All experimental points were setup in three replicate wells and independently performed in duplicate.
The effects of drug combinations were evaluated using Chou-Talalay median effect analysis (28). Cells were treated with each drug alone and in combination in two independent 96-well plates in a diagonal matrix format, and proliferation was measured by using a CellTiter Glo kit (Promega). Results were expressed as surviving fractions (fraction affected, Fa), based on the measured luminescence counts of treated samples, compared to that of untreated controls. […]
In vitro cytotoxic activity was evaluated for the 5T4-ADC or the auristatin payloads in combination with various standard of care (SOC) agents or selected signaling inhibitors in lung, breast cancer and ovarian cancer cell lines. […]

[6] = tested on: subcutaneous MDA-468 tumors; assay: Xenograft efficacy; format: in vivo, mouse; details: 5T4-ADC 2 mg/kg
Description: Female athymic nu/nu mice (18-23 g) were obtained from Charles River Laboratories, Wilmington, Mass. […] ADCs were administered based on mAb protein content at 2 or 3 mg Ab/kg on a Q4D×4 (every 4 day) schedule, with 8 to 10 mice per group. […] All procedures using mice were approved by the Pfizer Institutional Animal Care and Use Committee according to established guidelines. Time To Endpoint (time to no tumor or rate of tumor tripling) were used for comparison of drug-treated groups.

[7] = tested on: more than 50 diverse human tumor cell lines; assay: Anti-proliferative effect in tumor cell lines; format: cell-based
[8] = tested on: MDA-MB-361; assay: Apoptosis induction; format: cell-based; details: at 4 h, cleaved PARP

Structure (SMILES): COc1ccc(-c2cc3c(C)nc(N)nc3n([C@H]3CC[C@H](OCCO)CC3)c2=O)cn1 [Compound 1A, 2-amino-8-[trans-4-(2-hydroxyethoxy)cyclohexyl]-6-(6-methoxypyridin-3-yl)-4-methylpyrido[2,3-d]pyrimidin-7(8H)-one]
- fraction unbound [1]: 0.202
- in vivo activity [2]: has in vivo activity
- clearance [3]: low clearance
- concentration up to which no significant inhibitory activity was observed for any of the evaluated kinases [4]: > 10 µM

Structure (SMILES): O=C(NOC[C@H](O)CO)c1ccc(F)c(F)c1Nc1ccc(I)cc1F [PD-901]
- sensitivity of most of the cell lines to the single agent [5]: relatively insensitive

Structure (SMILES): CC(=O)O[C@H]1C(=O)[C@@]2(C)[C@H]([C@H](OC(=O)c3ccccc3)[C@]3(O)C[C@H](OC(=O)[C@H](O)[C@@H](NC(=O)c4ccccc4)c4ccccc4)C(C)=C1C3(C)C)[C@]1(OC(C)=O)CO[C@@H]1C[C@@H]2O [paclitaxel]
- regressions / CRs by day 53 ([6]; paclitaxel 22.5 mg/kg): 6/10
- antitumor activity of monotherapy ([6]; paclitaxel 10 mg/kg): no pronounced effect on tumor growth

Structure (SMILES): CN(C)C1CCN(C(=O)c2ccc(NC(=O)Nc3ccc(-c4nc(N5CCOCC5)nc(N5CCOCC5)n4)cc3)cc2)CC1 [PF-384, 1-(4-{[4-(dimethylamino)piperidin-1-yl]carbonyl}phenyl)-3-[4-(4,6-dimorpholin-4-yl-1,3,5-triazin-2-yl)phenyl]urea]
- IC50 [7]: < 100 nM
- concentration at which apoptosis was induced [8]: 30 nM

Structure (SMILES): C#Cc1cccc(Nc2ncnc3cc(OCCOC)c(OCCOC)cc23)c1 [Erlotinib]
- sensitivity of most of the cell lines to the single agent [5]: relatively insensitive
